# Experimental data published in patent US7347970B2, “Biocides based on silanol terminated silanes and siloxanes” (University of Florida Research Foundation, Inc., priority 2004, dated 2008).
# Experiments:
# Type in all cases: cell-based
# E. coli [1] = assay: Antimicrobial (bioactivity) test, plate counts and dilution method, log reduction; details: for bioactivity against E. coli: with cosolvent propylene glycol n-propyl ether, FIG. 6
# Method: Bioactivity (toxicity) tests were performed using silanols according to the invention along with some controls. E. coli was provided as the target microorganism. […] 20th ed. L. S. Clesceri, A. E. Greenberg, A. D. Eaton (eds.) Washington, D.C. was employed to measure the number of viable cells after the bioactivity tests. The collected sample underwent serial dilutions in which the original sample collected was diluted in a series of dilution tubes. Each succeeding dilution tube will have only one-tenth the number of microbial cells as the preceding tube. Then the samples of the dilution were used to inoculate Petri plates containing solid medium. The sample on the plates was plated evenly over the surface of the solid medium. Colonies grew only on surface of medium and could be counted. This count was used to estimate the number of viable bacterial in the original sample.
# Log reduction represents the number of E. coli eliminated through the silanol or other chemical treatment. The experiments were operated for an hour with proper stirring in aqueous solution. […] Log reduction 8 represents the detection limit for the experiment performed, and thus represents complete removal.
# (§1) Nine (9) ml of D.I. water was mixed with 1 ml of E. coli solution, and antimicrobial materials for 1 hr with magnetic stirring, then sampling was carried out. The plate counting method as described above was employed to measure the viability of the E. coli.
# E. coli [2] = assay: Minimum lethal concentration (MLC) against E. coli; details: for minimum lethal concentration compared with corresponding alcohol: E. coli, FIG. 10
# Method: The minimum lethal concentration against E. coli for each silanol is defined as the maximum dilution of the product that will kill a test organism. […] The antimicrobial effect increased with an increase in the number of the alkyl chain of the substituent R, in the order of methyl<ethyl<n-propyl<n-butyl as shown FIG. 5.
# Antimicrobial test was carried out to compare the bioactivity of fragrance ingredient of alcohols and the corresponding silanols according to the invention against E. coli. Alcohols, 2-methyl-1-phenyl-2-propanol corresponding to benzyldimethylsilanol, 2-methyl-4-phenyl-2-butanol corresponding to phenethyldimethylsilanol, were obtained from Sigma-Aldrich, and the silanols were prepared by the hydrolysis of chlorosilane.
# as §1
# E. coli [3] = assay: Antimicrobial (bioactivity) test, plate counts and dilution method, log reduction; details: 0.2 (% g/g), 10 minute mixing, FIG. 3; below detection limit
# [4] = 2 (% g/g), FIG. 4, complete removal
# [5] = 0.1% g/g with cosolvent propylene glycol n-propyl ether, FIG. 6/7
Compound,log reduction of E. coli (E. coli [1]; [4]),log reduction of E. coli (E. coli [1]; [5]),also measured
vinylphenylmethylsilanol,eight,,
"C[Si](C)(O)CCc1ccccc1 [Phenethyldimethylsilanol (UF), Phenethyldimethylsilanol]",,,minimum lethal concentration compared with corresponding alcohol (E. coli [2]): lower than their corresponding alcohols
C[Si](C)(O)c1ccccc1 [Phenyldimethylsilanol],eight,,
CC(C)(C)[Si](C)(C)O [t-butyldimethylsilanol],,8 log,
"C[Si]1(C)O[Si](C)(C)O[Si](C)(C)O[Si](C)(C)O1 [D4, octamethylcyclotetrasiloxane, reference compound]",,,bioactivity against E. coli (E. coli [1]): did not provide significant bioactivity
diphenylmethylsilanol,,8 log,
"C[Si](C)(O)Cc1ccccc1 [Benzyldimethylsilanol (UF), Benzyldimethylsilanol]",,,minimum lethal concentration compared with corresponding alcohol (E. coli [2]): lower than their corresponding alcohols
"CC(C)(C)O [t-butanol, reference compound]",,,bioactivity against E. coli (E. coli [1]): did not provide significant bioactivity
CC[Si](O)(CC)CC [triethylsilanol],eight,8 log,"reduction of E. coli (E. coli [3]): more than eight; log reduction of E. coli (E. coli [1]; 2.5 (% g/g), FIG. 2, 8 = detection limit): 8 log; antimicrobial effect (log reduction of E. coli) (E. coli [1]; 10 (% g/g), one hour stirring in aqueous solution, FIG. 1): high antimicrobial effect; antimicrobial effect by minimum lethal concentration (E. coli [2]; FIG. 5): strong antimicrobial effect"
C[Si](C)(C)O [trimethyisilanol],,8 log,
"C[Si](C)(O)CCC(F)(F)F [3,3,3-trifluoropropyldimethylsilanol]",eight,,
C=C[Si](C)(C)O [vinyldimethylsilanol],eight,,
